The text below walks through data of US20240199661A1, “BICYCLIC HETEROARYL PHOSPHONATE DERIVATIVES AS ECTONUCLEOTIDE PYROPHOSPHATASE PHOSPHODIESTERASE 1 INHIBITORS” (RIBOSCIENCE LLC, priority 2021, published 2024).

Structures can show the parent of a compound that is named as a salt.

One assay relates to HGS tumor model. In words: Anti-tumor activity in HGS tumor model. The following applies: 20/kg of compound. In kind it is in vivo.
`C=CC(=O)N1CCN(CCCn2c(=O)c(-c3c(Cl)c(OC)cc(OC)c3Cl)cc3cnc(NC)nc32)CC1` [8-(3-(4-acryloylpiperazin-1-yl)propyl)-6-(2,6-dichloro-3,5-dimethoxyphenyl)-2-(methylamino)pyrido[2,3-d]pyrimidin-7(8H)-one]: the antitumor activity result is “significant antitumor activity and induced tumor regression”.

Still in this assay, the particulars now being: animals treated with 20/kg of compound, day 42 after inoculation (vehicle 645).
With `C=CC(=O)N1CCN(CCCn2c(=O)c(-c3c(Cl)c(OC)cc(OC)c3Cl)cc3cnc(NC)nc32)CC1` [8-(3-(4-acryloylpiperazin-1-yl)propyl)-6-(2,6-dichloro-3,5-dimethoxyphenyl)-2-(methylamino)pyrido[2,3-d]pyrimidin-7(8H)-one], the tumor size is listed as 55 mm3.

A further assay concerns the target T1, ENPP1 (Homo sapiens, UniProt P22413).
T1 sequence (P22413 1-925): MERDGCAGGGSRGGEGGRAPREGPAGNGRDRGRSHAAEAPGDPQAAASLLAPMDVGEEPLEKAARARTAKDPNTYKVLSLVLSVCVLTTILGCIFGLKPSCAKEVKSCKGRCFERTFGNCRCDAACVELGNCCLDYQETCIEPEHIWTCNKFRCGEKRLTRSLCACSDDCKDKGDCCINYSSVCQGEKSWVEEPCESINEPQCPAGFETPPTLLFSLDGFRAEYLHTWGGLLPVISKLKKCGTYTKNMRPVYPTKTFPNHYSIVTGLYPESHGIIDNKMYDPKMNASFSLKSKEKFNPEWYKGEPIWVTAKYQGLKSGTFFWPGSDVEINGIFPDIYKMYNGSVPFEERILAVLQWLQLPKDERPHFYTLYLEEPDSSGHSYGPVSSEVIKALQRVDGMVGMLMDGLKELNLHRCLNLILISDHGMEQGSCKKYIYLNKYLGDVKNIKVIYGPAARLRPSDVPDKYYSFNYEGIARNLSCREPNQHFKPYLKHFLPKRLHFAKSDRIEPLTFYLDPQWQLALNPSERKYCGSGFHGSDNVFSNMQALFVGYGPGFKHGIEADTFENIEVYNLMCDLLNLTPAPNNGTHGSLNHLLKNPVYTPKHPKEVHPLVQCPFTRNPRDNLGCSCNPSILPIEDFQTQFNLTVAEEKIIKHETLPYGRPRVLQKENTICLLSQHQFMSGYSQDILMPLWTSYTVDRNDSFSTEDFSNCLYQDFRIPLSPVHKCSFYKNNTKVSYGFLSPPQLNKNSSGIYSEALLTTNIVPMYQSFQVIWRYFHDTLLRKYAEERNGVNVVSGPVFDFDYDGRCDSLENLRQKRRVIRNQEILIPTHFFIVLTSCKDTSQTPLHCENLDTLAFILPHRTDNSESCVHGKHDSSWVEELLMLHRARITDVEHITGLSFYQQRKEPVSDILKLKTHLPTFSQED
In words: Measurement of pNP-TMP hydrolysis by ENPP1 (enzyme activity assay, absorbance at 405 nm). In kind it is biochemical. The following applies: purified ENPP1, 500 μM pNP-TMP, Km 232 μM; Ki from IC50 by Cheng-Prusoff. Here is the method:
Measurement of pNP-TMP Hydrolysis by ENPP1
p-Nitrophenyl thymidine 5′-monophosphate (pNP-TMP) is a synthesized substrate for ENPP1. The ENPP1 enzyme activity assay with pNP-TMP substrate was conducted as follows:
First, in a 60 μl reaction, 7.5 ng purified ENPP1 was mixed with compounds of Formula (I) (test compound) ranging from 13.7 pM to 10 μM. Incubation of ENPP1 with compounds was set at 25° C. for 10 min. Reactions with DMSO only (with ENPP1 but no compound) gave the fastest reaction (MAX Activity). For each compound dilution, wells with assay buffer (50 mM Tris-HCl, pH8.8, 250 mM NaCl, 0.1 mg/ml BSA, 1% DMSO) only but no ENPP1 were included as controls for subtraction of test compound derived absorbance at 405 nm.
Second, after the 10 minutes ENPP1 and test compound incubation the assay was initiated by transferring 50 μl of the above mentioned ENPP1/test compound reaction into 50 μl of 1 mM pNP-TMP in assay buffer results in a 100 μl total reaction in clear bottom 96 well plates. Absorbance at 405 nm was recorded immediately in kinetic mode by PerkinElmer 2300 Enspire multimode plate reader.
For each inhibitor, the specific ENPP1 activity was calculated using the following equation: ENPP1 activity (pmol/min/μg)=Adjusted Vmax (OD405 nm/min)×conversion factor (pmol/OD405 nm)/amount of enzyme (μg)
Adjusted Vmax=V0×(Km+(S))/(S). In this assay, Km=232 μM, (S)=500 μM. Adjusted Vmax=1.464×V0.
V0=(OD405 nm with ENPP1−OD405 nm ENPP1 blank)/minutes. OD405 nm was plotted, with blank subtracted, against time (minutes), the initial linear rate is V0. […]
The conversion factor (pmol/OD405 nm), was determined by plotting the amount of standard, 4-Nitrophenol (Sigma-Aldrich, Catalog #241326), against absorbance at 405 nm. The slope is the conversion factor. The percent ENPP1 activity for each sample was calculated using the following equation:
% enzyme activity=sample enzyme activity/MAX Activity×100%.
To determine the IC50 for each compound, compound concentration values and percent enzyme activity values were inserted into GraphPad Prism (GraphPad Prism version 7.0 for Windows, GraphPad Software, La Jolla California USA, www.graphpad.com), and Prism's Transform analysis was used to convert the x-axis values (compound concentration) to logarithms. A sigmoidal variable slope nonlinear regression analysis was performed using the following equation: Y=Bottom+(Top−Bottom)/(1+10^((Log IC50−X)*HillSlope)).
Ki values for each compound were calculated from the observed IC50 from GraphPad analysis using the Cheng-Prusoff equation: Ki=IC50/(1+(S)/KM). (S) here is 500 μM and KM is determined to be 232 μM.
As usually defined, the Ki is a dissociation constant, usually derived from enzyme kinetics or from competition with a known ligand. As for `CCOP(=O)(O)c1ccc(CNc2ncnc3c(C(=O)NC)c[nH]c23)cc1` [Compound 2, ethoxy(4-([[7-(methylcarbamoyl)-5H-pyrrolo[3,2-d]pyrimidin-4-yl]-amino]methyl)phenyl)phosphinic acid], the Ki is above 10000 nM.
In turn, `CNC(=O)c1c[nH]c2c(NCc3ccc(CP(=O)(O)O)cc3)ncnc12` [Compound 4, [4-([[7-(methylcarbamoyl)-5H-pyrrolo[3,2-d]pyrimidin-4-yl]amino]-methyl)phenyl]methylphosphonic acid] showed a Ki below 1000 nM.
On the same count and under the same terms, to `CCOP(=O)(CC1CCN(c2ncnc3c(C(=O)NC)c[nH]c23)CC1)OCC` (single isomer, unassigned) [Compound 7, diethyl [1-[7-(methylcarbamoyl)-5H-pyrrolo[3,2-d]pyrimidin-4-yl]-piperidin-4-yl]methylphosphonate] belongs above 10000 nM; to `O=P(O)(O)c1ccc(CNc2ncnc3ccsc23)cc1` [Compound 16, 4-([thieno[3,2-d]pyrimidin-4-ylamino]methyl)phenyl-phosphonic acid], below 100 nM; to `CC(C)c1nc(NCc2ccc(P(=O)(O)O)cc2)c2c(cnn2C)n1` [Compound 17, 4-(((5-isopropyl-1-methyl-1H-pyrazolo[4,3-d]pyrimidin-7-yl)amino)methyl)phenyl-phosphonic acid], below 1000 nM.
With `CC(=O)Nc1csc2c(NCc3ccc(P(=O)(O)O)cc3)ncnc12` [Compound 15, 4-[([7-acetamidothieno[3,2-d]pyrimidin-4-yl]amino)methyl]-phenylphosphonic acid], the Ki is below 100 nM.
Still for that read-out and setting: then `Cn1ncc2ncnc(NCc3ccc(P(=O)(O)O)cc3)c21` [Compound 1, 4-[([1-methylpyrazolo[4,3-d]pyrimidin-7-yl]amino)methyl]-phenyl-phosphonic acid], with below 100 nM; and `CCOP(=O)(O)CCCC1CCN(c2ncnc3c(C(=O)NC)c[nH]c23)CC1` [Compound 10, ethoxy(3-[1-[7-(methylcarbamoyl)-5H-pyrrolo[3,2-d]pyrimidin-4-yl]-piperidin-4-yl]propyl)phosphinic acid], with above 10000 nM.
As for `CNC(=O)c1c[nH]c2c(N3CCC(CP(=O)(O)O)CC3)ncnc12` [Compound 9, [1-[7-(methylcarbamoyl)-5H-pyrrolo[3,2-d]pyrimidin-4-yl]piperidin-4-yl]methylphosphonic acid], the Ki is below 1000 nM.
As to `O=P(O)(O)c1ccc(CNc2ncnc3cn[nH]c23)cc1` [Compound 12, 4-([1H-pyrazolo[4,3-d]pyrimidin-7-ylamino]methyl)phenyl-phosphonic acid], the Ki was below 100 nM.
The same measure, in the same setting: then `CNC(=O)c1c[nH]c2c(NCc3ccc(P(=O)(O)O)cc3)ncnc12` [Compound 3, 4-([[7-(methylcarbamoyl)-5H-pyrrolo[3,2-d]pyrimidin-4-yl]amino]-methyl)phenylphosphonic acid], with below 1000 nM.
Molecule `CC(C)c1nc(NCc2ccc(P(=O)(O)O)cc2)c2[nH]ncc2n1` [Compound 18, 4-[([5-isopropyl-1H-pyrazolo[4,3-d]pyrimidin-7-yl]amino)methyl]phenylphosphonic acid formic acid salt] came in with a Ki below 1000 nM.
`NC(=O)c1n[nH]c2c(NCc3ccc(P(=O)(O)O)cc3)ncnc12` [Compound 14, 4-[([3-carbamoyl-1H-pyrazolo[4,3-d]pyrimidin-7-yl]amino)methyl]-phenylphosphonic acid]: the Ki is below 1000 nM.
Take `CNC(=O)c1c[nH]c2c(N3CCC(CCP(=O)(O)O)CC3)ncnc12` [Compound 6, 2-[1-[7-(methylcarbamoyl)-5H-pyrrolo[3,2-d]pyrimidin-4-yl]-piperidin-4-yl]ethylphosphonic acid]: the Ki was below 1000 nM.
`CNC(=O)c1c[nH]c2c(N3CCC(CCCP(=O)(O)O)CC3)ncnc12` [Compound 11, 3-[1-[7-(methylcarbamoyl)-5H-pyrrolo[3,2-d]pyrimidin-4-yl]-piperidin-4-yl]propylphosphonic acid] came in with a Ki below 10000 nM.
